This is an account of results in ChEMBL document CHEMBL5678807, “A selective jumonji H3K27 demethylase inhibitor modulates the proinflammatory macrophage response” (Nature, 2012).

Where only a bound is given, the exact number is not on record here.

The nature of data set [1]: Prodrug conversion in human primary macrophage lysates assessed as formation of GSK-J1 at 30 uM measured after 1 hr by RP LC-MS/MS analysis. Type of data set: ADME, subcellular.
Data set [2] deals with Macrophage. Kind of data set: Antiinflammatory activity in human primary macrophages assessed as effect on LPS-induced BMP1 gene expression at 30 uM measured after 2 hrs by RT-PCR array (reference value: 3930 a.u.). Type of data set: functional.
Data set [3] relates to Macrophage. Kind of data set: Antiinflammatory activity in human primary macrophages assessed as effect on LPS-induced BMP2 gene expression at 30 uM measured after 2 hrs by RT-PCR array (reference value: 331 a.u.). Type of data set: functional.
For data set [4], the system named is Macrophage. The data set is described as follows: Antiinflammatory activity in human primary macrophages assessed as effect on LPS-induced BMP8B gene expression at 30 uM measured after 2 hrs by RT-PCR array (reference value: 1117 a.u.). Type of data set: functional.
The subject of data set [5] is Macrophage. Kind of data set: Antiinflammatory activity in human primary macrophages assessed as effect on LPS-induced GDF11 gene expression at 30 uM measured after 2 hrs by RT-PCR array (reference value: 115 a.u.). Type of data set: functional.
Data set [6] concerns Macrophage. The data set is described as follows: Antiinflammatory activity in human primary macrophages assessed as effect on LPS-induced GDF3 gene expression at 30 uM measured after 2 hrs by RT-PCR array (reference value: 134 a.u.). It is filed as functional.
The subject of data set [7] is Macrophage. Kind of data set: Antiinflammatory activity in human primary macrophages assessed as effect on LPS-induced IFNA1 gene expression at 30 uM measured after 2 hrs by RT-PCR array (reference value: 462 a.u.). It is filed as functional.
For data set [8], the system named is Macrophage. Kind of data set: Antiinflammatory activity in human primary macrophages assessed as effect on LPS-induced IFNA4 gene expression at 30 uM measured after 2 hrs by RT-PCR array (reference value: 28 a.u.). It is filed as functional.
Data set [9] deals with Macrophage. Kind of data set: Antiinflammatory activity in human primary macrophages assessed as effect on LPS-induced IL19 gene expression at 30 uM measured after 2 hrs by RT-PCR array (reference value: 13781 a.u.). Type of data set: functional.
In data set [10] the test system is Macrophage. The data set is described as follows: Antiinflammatory activity in human primary macrophages assessed as effect on LPS-induced IL1B gene expression at 30 uM measured after 2 hrs by RT-PCR array (reference value: 15266918 a.u.). Type of data set: functional.
In data set [11] the test system is Macrophage. Kind of data set: Antiinflammatory activity in human primary macrophages assessed as effect on LPS-induced IL1F7 gene expression at 30 uM measured after 2 hrs by RT-PCR array (reference value: 192 a.u.). Type of data set: functional.
Data set [12] relates to Macrophage. Kind of data set: Antiinflammatory activity in human primary macrophages assessed as effect on LPS-induced IL1F8 gene expression at 30 uM measured after 2 hrs by RT-PCR array (reference value: 1429 a.u.). It is filed as functional.
In data set [13] the test system is Macrophage. Kind of data set: Antiinflammatory activity in human primary macrophages assessed as effect on LPS-induced IL8 gene expression at 30 uM measured after 2 hrs by RT-PCR array (reference value: 11155386 a.u.). It is filed as functional.
In data set [14] the test system is Macrophage. The data set is described as follows: Antiinflammatory activity in human primary macrophages assessed as effect on LPS-induced LTB gene expression at 30 uM measured after 2 hrs by RT-PCR array (reference value: 6025 a.u.). It is filed as functional.
Data set [15] has as its system Macrophage. The data set is described as follows: Antiinflammatory activity in human primary macrophages assessed as effect on LPS-induced TGFB1 gene expression at 30 uM measured after 2 hrs by RT-PCR array (reference value: 72816 a.u.). It is filed as functional.
For data set [16], the system named is Macrophage. Kind of data set: Antiinflammatory activity in human primary macrophages assessed as effect on LPS-induced TGFB2 gene expression at 30 uM measured after 2 hrs by RT-PCR array (reference value: 7625 a.u.). Type of data set: functional.
In data set [17] the test system is Macrophage. The data set is described as follows: Antiinflammatory activity in human primary macrophages assessed as effect on LPS-induced TNFSF10 gene expression at 30 uM measured after 2 hrs by RT-PCR array (reference value: 221027 a.u.). Type of data set: functional.
Data set [18] concerns Macrophage. Kind of data set: Antiinflammatory activity in human primary macrophages assessed as effect on LPS-induced TNFSF14 gene expression at 30 uM measured after 2 hrs by RT-PCR array (reference value: 5963 a.u.). It is filed as functional.
Data set [19] has as its target Lysine-specific demethylase 4C (Homo sapiens, UniProt Q9H3R0). The data set is described as follows: Inhibition of human JmjD2c using H3K27(me3) as substrate preincubated for 10 mins followed by substrate addition and measured after 7 mins in presence of alpha-KG by RapidFire Mass Spectrometry.
Data set [20] has as its target Polyamine deacetylase HDAC10 (Homo sapiens, UniProt Q969S8). Kind of data set: Inhibition of human HDAC10 by FLINT assay.
In a further data set the target is Histone deacetylase 11 (Homo sapiens, UniProt Q96DB2). Kind of data set: Inhibition of human HDAC11 by FLINT assay.
Chain of Histone deacetylase 11 (Q96DB2 whole entry): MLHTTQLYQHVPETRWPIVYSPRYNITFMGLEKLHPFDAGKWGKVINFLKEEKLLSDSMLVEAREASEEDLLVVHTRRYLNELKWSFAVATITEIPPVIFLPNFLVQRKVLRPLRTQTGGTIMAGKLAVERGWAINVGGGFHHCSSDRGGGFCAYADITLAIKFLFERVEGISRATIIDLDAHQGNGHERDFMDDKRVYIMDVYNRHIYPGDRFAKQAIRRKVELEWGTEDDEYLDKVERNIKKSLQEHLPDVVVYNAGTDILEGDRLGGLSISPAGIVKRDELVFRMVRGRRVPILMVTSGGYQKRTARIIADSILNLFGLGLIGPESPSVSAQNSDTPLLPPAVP
The target in data set [21] is Lysine-specific histone demethylase 1A (Homo sapiens, UniProt O60341). The data set is described as follows: Inhibition of human LSD-1 by luminescence assay.
The target in data set [22] is 5-hydroxytryptamine receptor 2A (Homo sapiens, UniProt P28223). The data set is described as follows: Antagonist activity at human 5-HT2A by intracellular Ca luminescence assay. Type of data set: functional, cell-based.
Chain of 5-hydroxytryptamine receptor 2A (P28223 whole entry): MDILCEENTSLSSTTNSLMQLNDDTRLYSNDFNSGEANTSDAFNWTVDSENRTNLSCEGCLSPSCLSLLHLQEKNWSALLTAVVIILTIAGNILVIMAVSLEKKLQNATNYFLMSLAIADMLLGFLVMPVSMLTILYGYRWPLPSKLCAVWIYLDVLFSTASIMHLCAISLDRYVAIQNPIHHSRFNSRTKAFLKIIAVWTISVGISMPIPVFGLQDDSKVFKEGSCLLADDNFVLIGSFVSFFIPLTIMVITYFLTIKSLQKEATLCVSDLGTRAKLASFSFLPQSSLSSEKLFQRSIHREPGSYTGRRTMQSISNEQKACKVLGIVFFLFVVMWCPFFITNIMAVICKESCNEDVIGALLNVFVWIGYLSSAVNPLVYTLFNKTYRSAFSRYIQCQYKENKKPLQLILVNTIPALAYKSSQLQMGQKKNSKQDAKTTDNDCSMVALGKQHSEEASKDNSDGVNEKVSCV
Data set [23] deals with T1, 5-hydroxytryptamine receptor 1B (Homo sapiens, UniProt P28222). The data set is described as follows: Agonist activity at human 5-HT1B by SPA. It is filed as functional.
T1 sequence (P28222 whole entry): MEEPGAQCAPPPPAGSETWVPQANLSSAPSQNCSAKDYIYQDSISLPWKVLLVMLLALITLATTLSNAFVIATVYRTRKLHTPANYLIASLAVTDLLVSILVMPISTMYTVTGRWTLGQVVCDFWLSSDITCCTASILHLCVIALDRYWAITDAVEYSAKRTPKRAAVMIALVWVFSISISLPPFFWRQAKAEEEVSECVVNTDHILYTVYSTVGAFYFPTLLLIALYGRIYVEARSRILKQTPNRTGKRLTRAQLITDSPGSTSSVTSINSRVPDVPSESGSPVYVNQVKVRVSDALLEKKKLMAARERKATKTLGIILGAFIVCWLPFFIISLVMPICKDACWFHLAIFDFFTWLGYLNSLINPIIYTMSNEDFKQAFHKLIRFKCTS
The target in data set [24] is T1, 5-hydroxytryptamine receptor 1B. Kind of data set: Antagonist activity at human 5-HT1B by SPA. Type of data set: functional.
Data set [25] is described as follows: Agonist activity at human 5-HT3 by intracellular Ca fluorescence assay. It is filed as cell-based.
The target in another data set is Cannabinoid receptor 2 (Homo sapiens, UniProt P34972). The data set is described as follows: Agonist activity at human cannabinoid CB2 receptor by Yeast FDGlu assay. It is filed as functional.
Chain of Cannabinoid receptor 2 (P34972 whole entry): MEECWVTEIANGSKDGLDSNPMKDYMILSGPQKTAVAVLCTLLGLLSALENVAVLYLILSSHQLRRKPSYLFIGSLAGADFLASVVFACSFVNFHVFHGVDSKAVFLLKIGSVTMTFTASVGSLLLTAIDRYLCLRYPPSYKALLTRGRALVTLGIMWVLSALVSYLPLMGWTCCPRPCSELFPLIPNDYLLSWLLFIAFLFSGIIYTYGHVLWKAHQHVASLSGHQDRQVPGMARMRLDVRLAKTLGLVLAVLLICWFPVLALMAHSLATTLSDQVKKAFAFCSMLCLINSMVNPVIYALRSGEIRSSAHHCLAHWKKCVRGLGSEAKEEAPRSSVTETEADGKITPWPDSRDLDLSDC
Data set [26] has as its target T2, Muscarinic acetylcholine receptor M2 (Homo sapiens, UniProt P08172).
T2 sequence (P08172 whole entry): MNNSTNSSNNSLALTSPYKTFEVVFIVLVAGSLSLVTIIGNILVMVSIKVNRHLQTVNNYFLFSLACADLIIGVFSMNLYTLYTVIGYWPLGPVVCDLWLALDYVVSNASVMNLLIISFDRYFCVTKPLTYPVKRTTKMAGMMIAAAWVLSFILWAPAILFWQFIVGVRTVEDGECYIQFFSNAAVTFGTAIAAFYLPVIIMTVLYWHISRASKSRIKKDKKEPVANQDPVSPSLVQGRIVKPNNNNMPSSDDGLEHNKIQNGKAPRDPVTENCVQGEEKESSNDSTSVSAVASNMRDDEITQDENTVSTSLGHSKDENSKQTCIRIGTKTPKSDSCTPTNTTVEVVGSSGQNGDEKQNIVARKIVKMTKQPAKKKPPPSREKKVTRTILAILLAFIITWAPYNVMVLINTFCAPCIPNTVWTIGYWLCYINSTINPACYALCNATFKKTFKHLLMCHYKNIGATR
Kind of data set: Antagonist activity at human CHRM2 by intracellular Ca fluorescence assay. It is filed as functional, cell-based.

The next data set deals with Mu-type opioid receptor (Homo sapiens, UniProt P35372). Kind of data set: Agonist activity at human OPRM-1 by SPA. It is filed as functional.
Chain of Mu-type opioid receptor (P35372 whole entry): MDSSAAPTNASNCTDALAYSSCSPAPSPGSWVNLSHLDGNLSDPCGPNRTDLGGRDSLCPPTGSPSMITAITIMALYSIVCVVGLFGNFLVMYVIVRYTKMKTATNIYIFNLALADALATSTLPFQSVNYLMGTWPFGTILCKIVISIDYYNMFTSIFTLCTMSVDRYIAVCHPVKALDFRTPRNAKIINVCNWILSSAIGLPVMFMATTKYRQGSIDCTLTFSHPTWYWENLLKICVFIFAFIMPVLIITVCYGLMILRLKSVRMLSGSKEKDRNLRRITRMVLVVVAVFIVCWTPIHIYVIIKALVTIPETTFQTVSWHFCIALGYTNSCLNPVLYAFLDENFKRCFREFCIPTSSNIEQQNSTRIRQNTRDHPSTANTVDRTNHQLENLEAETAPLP
Another data set has as its target hERG (KCNH2) (Homo sapiens, UniProt Q12809). Kind of data set: Blockade of human KCNH2 by electrophysiology assay. It is filed as toxicity.
Data set [27] deals with Voltage-gated potassium channel, IKs; KCNQ1(Kv7.1)/KCNE1(MinK) (Homo sapiens, UniProt P51787+P15382). Kind of data set: Blockade of human KCNQ1/KCNE1 by electrophysiology assay. Type of data set: protein-complex assay.
Chain of Voltage-gated potassium channel, IKs; KCNQ1(Kv7.1)/KCNE1(MinK) (P51787 whole entry): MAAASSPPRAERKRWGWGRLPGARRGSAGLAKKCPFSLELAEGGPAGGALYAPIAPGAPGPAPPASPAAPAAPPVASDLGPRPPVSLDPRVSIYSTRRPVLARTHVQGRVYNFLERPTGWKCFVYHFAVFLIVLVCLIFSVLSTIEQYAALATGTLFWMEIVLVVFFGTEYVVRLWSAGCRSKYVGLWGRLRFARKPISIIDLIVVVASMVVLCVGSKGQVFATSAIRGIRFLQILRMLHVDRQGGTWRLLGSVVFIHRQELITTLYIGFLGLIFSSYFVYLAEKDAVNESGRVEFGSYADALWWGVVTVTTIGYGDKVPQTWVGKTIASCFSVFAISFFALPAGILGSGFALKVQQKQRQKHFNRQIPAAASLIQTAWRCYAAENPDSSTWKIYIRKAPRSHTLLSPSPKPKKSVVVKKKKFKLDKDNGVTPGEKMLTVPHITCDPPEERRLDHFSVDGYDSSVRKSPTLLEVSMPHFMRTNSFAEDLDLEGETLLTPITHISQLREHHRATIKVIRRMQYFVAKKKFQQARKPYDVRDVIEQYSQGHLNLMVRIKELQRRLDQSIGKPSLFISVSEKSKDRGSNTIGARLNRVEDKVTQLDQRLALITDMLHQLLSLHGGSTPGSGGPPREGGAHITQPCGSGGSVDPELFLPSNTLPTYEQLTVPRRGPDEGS
The next data set concerns the target PXR (NR1I2) (Homo sapiens, UniProt O75469). Kind of data set: Agonist activity at human PXR by luciferase reporter assay. On the technique in general: In a reporter assay the amount or activity of a reporter protein is the signal.

Chain of PXR (NR1I2) (O75469 whole entry): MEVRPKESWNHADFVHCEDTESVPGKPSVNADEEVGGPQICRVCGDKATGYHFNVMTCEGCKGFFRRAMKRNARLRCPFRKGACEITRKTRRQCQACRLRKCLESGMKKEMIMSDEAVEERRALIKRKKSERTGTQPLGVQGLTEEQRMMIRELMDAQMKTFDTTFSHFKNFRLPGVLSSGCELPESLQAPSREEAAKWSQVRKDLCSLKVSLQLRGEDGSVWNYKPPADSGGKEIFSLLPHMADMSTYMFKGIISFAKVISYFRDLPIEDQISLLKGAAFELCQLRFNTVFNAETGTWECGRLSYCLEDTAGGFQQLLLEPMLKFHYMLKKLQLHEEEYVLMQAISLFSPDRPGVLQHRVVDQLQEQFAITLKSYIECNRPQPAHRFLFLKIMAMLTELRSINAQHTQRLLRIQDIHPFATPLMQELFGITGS
Chain of Polyamine deacetylase HDAC10 (Q969S8 whole entry): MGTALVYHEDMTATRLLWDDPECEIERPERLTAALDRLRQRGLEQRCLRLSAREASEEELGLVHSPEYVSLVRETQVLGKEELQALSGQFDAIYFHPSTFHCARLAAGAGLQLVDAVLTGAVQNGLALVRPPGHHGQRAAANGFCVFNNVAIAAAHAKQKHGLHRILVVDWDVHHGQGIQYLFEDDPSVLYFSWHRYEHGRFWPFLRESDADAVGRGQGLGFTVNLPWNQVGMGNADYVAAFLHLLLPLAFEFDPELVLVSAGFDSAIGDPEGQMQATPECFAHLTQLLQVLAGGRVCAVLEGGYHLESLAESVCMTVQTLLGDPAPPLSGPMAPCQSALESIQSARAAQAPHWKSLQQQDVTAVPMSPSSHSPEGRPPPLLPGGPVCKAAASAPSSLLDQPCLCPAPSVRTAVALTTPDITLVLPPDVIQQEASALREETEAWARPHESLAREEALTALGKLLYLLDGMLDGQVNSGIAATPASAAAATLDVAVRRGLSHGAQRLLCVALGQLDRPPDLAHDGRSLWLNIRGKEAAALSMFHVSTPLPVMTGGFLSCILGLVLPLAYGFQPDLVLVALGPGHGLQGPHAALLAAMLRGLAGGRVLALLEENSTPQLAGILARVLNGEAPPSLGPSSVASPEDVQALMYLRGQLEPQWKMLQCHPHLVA
Chain of Lysine-specific demethylase 4C (Q9H3R0 whole entry): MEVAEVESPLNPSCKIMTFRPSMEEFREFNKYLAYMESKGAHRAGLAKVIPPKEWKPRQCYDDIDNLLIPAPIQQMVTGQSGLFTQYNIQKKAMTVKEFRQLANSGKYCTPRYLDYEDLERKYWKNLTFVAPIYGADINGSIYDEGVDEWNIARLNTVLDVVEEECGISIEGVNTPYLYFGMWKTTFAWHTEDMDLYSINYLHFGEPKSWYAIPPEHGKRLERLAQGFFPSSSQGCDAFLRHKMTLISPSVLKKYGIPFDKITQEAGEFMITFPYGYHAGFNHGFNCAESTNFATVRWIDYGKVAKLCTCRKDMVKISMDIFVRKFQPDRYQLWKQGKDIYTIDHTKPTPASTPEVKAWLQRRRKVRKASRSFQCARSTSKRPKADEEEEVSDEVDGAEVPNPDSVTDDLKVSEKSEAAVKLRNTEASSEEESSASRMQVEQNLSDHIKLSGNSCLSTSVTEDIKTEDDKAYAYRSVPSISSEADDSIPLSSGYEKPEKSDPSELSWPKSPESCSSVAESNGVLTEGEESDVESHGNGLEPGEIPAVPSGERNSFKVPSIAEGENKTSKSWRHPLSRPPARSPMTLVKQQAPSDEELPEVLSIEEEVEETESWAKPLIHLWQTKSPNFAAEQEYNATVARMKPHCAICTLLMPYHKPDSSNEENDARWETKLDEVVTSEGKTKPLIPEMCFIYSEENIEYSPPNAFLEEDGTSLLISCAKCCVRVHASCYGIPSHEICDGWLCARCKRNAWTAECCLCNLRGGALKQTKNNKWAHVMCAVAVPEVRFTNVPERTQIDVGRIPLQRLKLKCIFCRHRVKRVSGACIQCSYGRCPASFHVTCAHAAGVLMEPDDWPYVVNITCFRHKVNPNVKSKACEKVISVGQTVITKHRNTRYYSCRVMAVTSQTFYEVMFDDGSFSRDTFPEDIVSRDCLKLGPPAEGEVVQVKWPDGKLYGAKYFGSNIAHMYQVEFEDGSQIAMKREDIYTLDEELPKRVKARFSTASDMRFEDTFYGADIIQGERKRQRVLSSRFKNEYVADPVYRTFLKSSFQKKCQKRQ

Take `CCOC(=O)CCNc1cc(N2CCc3ccccc3CC2)nc(-c2ccccn2)n1`: the Drug metabolism in [1] was determined as 11.8 µM. The Activity with Macrophage [2] worked out at 2627 a.u; with Macrophage [3] it was 3 a.u; in the data set with Macrophage [4] it was 820 a.u; in the data set with Macrophage [5] it was 31 a.u; in the data set with Macrophage [6] it was 59 a.u; with Macrophage [7], 285 a.u. Besides, the Activity with Macrophage [8] is recorded as 25 a.u; in the data set on Macrophage [9] it was 1216 a.u; in the data set on Macrophage [10] it was 3032303 a.u; in the data set on Macrophage [11] it was 360 a.u; with Macrophage [12] it was 1157 a.u; in the data set on Macrophage [13] it was 1556795 a.u. In addition, the Activity came to 5493 a.u in the data set with Macrophage [14]; 50103 a.u in the data set with Macrophage [15]; 3422 a.u in the data set with Macrophage [16]; 39793 a.u in the data set on Macrophage [17]; 9678 a.u with Macrophage [18].

Take `O=C(O)CCNc1cc(N2CCc3ccccc3CC2)nc(-c2ccccn2)n1`: in data set [19], the IC50 is over 100 µM. The XC50 in [20] is over 300 µM; at Histone deacetylase 11, over 300 µM; in [21] it was over 125 µM; in data set [22] it was over 40 µM; in [23], over 32 µM; in data set [24], over 32 µM. Moreover, the XC50 in [25] is over 50 µM; at Cannabinoid receptor 2, over 32 µM; in data set [26] it was over 16 µM; on Mu-type opioid receptor it was over 100 µM; at hERG (KCNH2), 8 µM; in data set [27], over 25 µM. In addition, the XC50 at PXR (NR1I2) is over 50 µM.

Consider `O=C(O)CCNc1cc(N2CCc3ccccc3CC2)nc(-c2cccnc2)n1`, for which the XC50 in data set [20] was over 300 µM; on Histone deacetylase 11, over 300 µM; in data set [21] it was over 125 µM; in data set [22], over 40 µM; in [23], over 32 µM; in [24] it was over 32 µM. For the same molecule, the XC50 is over 50 µM in data set [25]; over 32 µM at Cannabinoid receptor 2; over 16 µM in data set [26]; over 100 µM at Mu-type opioid receptor; over 50 µM on hERG (KCNH2); over 25 µM in data set [27]. Besides, at PXR (NR1I2), the XC50 was found to be 10 µM.

In the case of `CCOC(=O)CCNc1cc(N2CCc3ccccc3CC2)nc(-c2cccnc2)n1`, the Activity turned out to be 2746 a.u in the data set on Macrophage [2]; 347 a.u with Macrophage [3]; 1235 a.u in the data set with Macrophage [4]; 110 a.u in the data set with Macrophage [5]; 151 a.u with Macrophage [6]; 835 a.u in the data set on Macrophage [7]. For the same molecule, the Activity in the data set with Macrophage [8] is listed as 1 a.u; with Macrophage [9], 1914 a.u; in the data set on Macrophage [10] it was 10300355 a.u; in the data set with Macrophage [11] it was 33 a.u; in the data set on Macrophage [12] it was 2282 a.u; in the data set on Macrophage [13] it was 5618140 a.u. For the same molecule, the Activity in the data set on Macrophage [14] is given as 5856 a.u; with Macrophage [15] it was 49233 a.u; in the data set on Macrophage [16], 4816 a.u; in the data set on Macrophage [17], 132521 a.u; with Macrophage [18] it was 5331 a.u.

Broadly, the IC50 is the concentration needed to halve the response being measured.
